Reference: patent US20080119571A1, “COMPOSITIONS AND METHODS TO ENHANCE REVERSE CHOLESTEROL TRANSPORT” (REDDY US THERAPEUTICS, INC., priority 2006, published 2008)
Entries after “also recorded” stand apart in the source; their conditions may differ.

Experiments:
[1] = tested on: CAD; conditions: 4081 asymptomatic middle-aged men with primary dyslipidemia, 5 years; cited from earlier work
[2] = tested on: SR-B1; assay: SR-B1 expression in normal animals (rat liver), real time PCR; assay type: in vivo
Excerpt: (§1) After 7 days of treatment RCT pathway genes were quantitated using real time PCR.

[3] = tested on: atherosclerotic lesions; assay: Atherosclerotic lesion area in LDLr null mice on Western Diet, long term model; assay type: in vivo, mouse; conditions: high fat diet, 25 mg/kg daily, 16 weeks
Excerpt: The atheroprotective effects of HDL to a large extent are attributed to its ability to remove cholesterol from macrophages present in atherosclerotic lesions to transport them to liver for excretion into bile. LDLr null mice develop atherosclerosis when fed a high fat diet. […] This example illustrates the effect of compound A on HDL and atherosclerosis in LDLr null mice in a long term model. Eight-weeks-old LDLr null mice (Jackson Laboratories, Bar Harbor, Me.), were used for these studies. Two groups of 8 mice each received a Western Diet (Research Diet incorporated, New Brunswick, N.J.; D12079B containing 0.1% cholesterol) for 2 weeks. Plasma samples were collected and used for lipid analysis. Mice were then distributed into two groups, one group received vehicle containing carboxymethyl cellulose and Tween-80 (Sigma Chemical Co.), and the other group received a daily dose of compound A at 25 mg/kg. Both groups were continued on the Western Diet for another 16 weeks. At the end of the 16 weeks, the mice were euthanized by CO2, and whole aortas (from aortic sinus to the beginning of iliac aorta) were isolated, and fixed in 10% paraformaldehyde. […] Images of whole aortas were obtained by microscopic digital camera, and the lesion area was determined by computer-assisted morphometry (Image Pro, Media cybermetics) as percentages of coverage in whole aorta. […]

[4] = tested on: SRB1; assay: SRB1 expression in HepG2 liver cells, real time PCR; assay type: cell-based, human; conditions: HepG2, treated overnight
Method: (§2) The hepatoma cell line HepG2 are frequently used as in vitro models of liver cells. They are easy to culture and retain many properties of liver cells including expression of various genes involved in lipid metabolism.
(§3) This example illustrates the effect of compound A on genes associated with RCT in HepG2 cells.
(§4) Human HepG2 cells were cultured in DMEM containing 4500 mg glucose/L (ATCC) supplemented with 10% fetal bovine serum (FBS), penicillin (100 U/ml), and streptomycin (100 μg/ml) in a humidified atmosphere (5% CO2 in air) at 37° C. Cells were plated onto 12 well dishes and cultured in low serum (0.5% FBS) for experiments. Cells were treated with either vehicle (DMSO) or the test compound overnight and used for RNA isolation. Briefly, cells were lysed in 300 uL of lysis buffer (Qiagen) and placed in the TissueLyser (Qiagen) for 3 minutes. Samples were then processed as described by the RNeasy mini kit. RNA was then verified and quantified using the Agilent RNA 600 Nano Assay Labchip® system, and real time PCR was performed to quantitate gene expression using validated primer sets from SuperArray. The results were illustrated in FIGS. 8-9.

[5] = tested on: ABCA1; assay: ABCA1 expression in HepG2 liver cells, real time PCR; assay type: cell-based, human; conditions: HepG2, treated overnight
Method: as §2, §3, §4

[6] = Plasma HDL levels in LDLr null mice, short term model; assay type: in vivo, mouse; conditions: 7-day treatment
Excerpt: Upregulation of ABCA1 and LCAT also should result in the formation of HDL particles. Following 7-day treatment, compound A increased HDL levels by greater than 50% (FIG. 4).
(§5) This example illustrates the effect of compound A on HDL and the ABCA1, SR-B1 and LCAT genes associated with RCT in LDL-receptor (LDLr) null mice in a short term model.
Eight-weeks-old LDLr mice (Jackson Laboratories, Bar Harbor, Me.), were used for this Example. Mice were distributed into two groups of 8 mice each. One group received vehicle containing carboxymethyl cellulose and Tween-80 (Sigma Chemical Co.), and the other group received a daily dose of compound A at 25 mg/kg.
(§6) After one week, plasma samples were collected and used for HDL determination. Mice were euthanized by CO2, and aorta and liver samples were collected for RNA isolation.

[7] = tested on: LCAT; assay: LCAT gene expression in LDL-r null mouse liver, real time PCR; assay type: in vivo
Method: (§7) To determine if a test compound was capable of upregulating these three RCT pathway genes, LDL-r mice were treated with vehicle alone (control) or vehicle containing a defined amount of a test compound termed, “compound A”.
(§8) LDL-r mice were chosen because they are prone to develop atherosclerosis. After 7 days of treatment, the three RCT pathway genes were quantitated using real time PCR. […] Thus, compound A coordinately up regulated the three RCT pathway genes, namely ABCA1, LCAT, and SRB1.
as §5
(§9) Eight-weeks-old LDLr mice (Jackson Laboratories, Bar Harbor, Me.), were used for this Example. Mice were distributed into two groups of 8 mice each. One group received vehicle containing carboxymethyl cellulose and Tween-80 (Sigma Chemical Co.), and the other group received a daily dose of compound A at 25 mg/kg. […]
(§10) Next, liver and aorta samples from vehicle and compound A treated mice were removed, flash frozen in liquid nitrogen and subsequently used for RNA isolation. […] RNA was then verified and quantified using the Agilent RNA 600 Nano Assay Labchip® system, and real time PCR was performed to quantitate the gene expression of SR-B1, ABCA1 and LCAT using validated primer sets from SuperArray. […]

[8] = tested on: SR-B1; assay: SR-B1 gene expression in LDL-r null mouse liver, real time PCR; assay type: in vivo
Method: as §7, §8, §5, §9, §10

[9] = tested on: ABCA1; assay: ABCA1 expression in normal animals (rat liver), real time PCR; assay type: in vivo
Excerpt: as §1

[10] = tested on: ABCA1; assay: ABCA1 gene expression in LDL-r null mouse liver, real time PCR; assay type: in vivo
Method: as §7, §8, §5
Eight-weeks-old LDLr mice (Jackson Laboratories, Bar Harbor, Me.), were used for this Example. Mice were distributed into two groups of 8 mice each. […]
as §6, §10

[11] = normal animals, 10 and 25 mg/kg, 7 days of treatment
[12] = LDL-r mice, 10 and 25 mg/kg, 7 days of treatment, liver

Compound	decrease in CAD [1]	SRB1 expression in rat liver [2]	increase in SR-B1 expression compared to vehicle treated animals [2, 11]	effect on atherosclerotic lesions [3]	SRB1 expression in liver cells [4]	ABCA1 expression in liver cells [5]	ABCA1 expression in liver cells ([5]; listed as compound of Formula I)	increase in HDL levels [6]	LCAT expression in LDL-r null mouse liver [7]	increase in LCAT expression ([7]; LDL-r mice, 7 days of treatment, liver)	SRB1 expression in LDL-r null mouse liver [8]	increase in SR-B1 expression compared to vehicle treated animals [8, 12]	ABCA1 expression in rat liver [9]	increase in ABCA1 expression compared to vehicle treated animals [9, 11]	ABCA1 expression in LDL-r null mouse liver [10]	increase in ABCA1 expression compared to vehicle treated animals [10, 12]
Cc1ccc(C)c(OCCCC(C)(C)C(=O)O)c1 [gemfibrozil]	34%															
CC(=O)c1ccc(Nc2nc(-c3ccccc3)cc(N3CCC(O)CC3)n2)cc1 [compound A]		induces	2-4 fold	inhibits atherosclerosis development; also recorded: significant decrease	capable of increasing	induces	capable of increasing	greater than 50%	induces	30-90%	induces	2-2.5 fold	induces	2-4 fold	induces	2-3 fold
